Reference: ChEMBL document CHEMBL1201862, “PubChem BioAssay data set” (2004)
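Method: 48-hour compound exposure of cells in 96-well plates, five concentrations, linear interpolation of endpoints. GI50: concentration for 50% inhibition of growth.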 The source made the active and inactive calls. Cut-off read from the data, not from the text of the source: active = GI50 up to about 1.1 µM and inactive = higher.

Key:
Assay in all cases: NCI tumour cell line growth inhibition, 48 h
M19-MEL = test system: M19-MEL
LXFL 529 = test system: LXFL 529
KM-20L2 = test system: KM-20L2
XF498 = test system: XF498
DMS-114 = test system: DMS-114
DMS-273 = test system: DMS-273
DLD-1 = test system: DLD-1
RXF 631 = test system: RXF 631
HOP-18 = test system: HOP-18

CC(C)(C)C(C#N)(C#N)c1ccc(C(C#N)(C#N)C(C)(C)C)nn1
GI50 (M19-MEL): > 100 µM (inactive) | GI50 (LXFL 529): > 100 µM (inactive) | GI50 (KM-20L2): > 100 µM (inactive) | GI50 (XF498): 38.6 µM (inactive) | GI50 (DMS-114): > 100 µM (inactive) | GI50 (DMS-273): > 100 µM (inactive) | GI50 (DLD-1): > 100 µM (inactive) | GI50 (RXF 631): > 100 µM (inactive)

CCCCN(CCCC)CC(C(=O)Nc1ccc([N+](=O)[O-])cc1[N+](=O)[O-])/C(C)=N\NC(=O)c1ccncc1 (stereo not given)
GI50 (M19-MEL): > 100 µM (inactive) | GI50 (LXFL 529): > 100 µM (inactive) | GI50 (KM-20L2): > 100 µM (inactive) | GI50 (XF498): > 100 µM (inactive) | GI50 (DMS-114): > 100 µM (inactive) | GI50 (DMS-273): > 100 µM (inactive) | GI50 (DLD-1): > 100 µM (inactive) | GI50 (RXF 631): > 100 µM (inactive)

COc1cccc(/C(C=O)=C(\Cl)c2ccc(OC)c(OC)c2)c1
GI50 (M19-MEL): 11.3 µM (inactive) | GI50 (LXFL 529): 11.6 µM (inactive) | GI50 (KM-20L2): 19.7 µM (inactive) | GI50 (XF498): 17.3 µM (inactive) | GI50 (HOP-18): 13.6 µM (inactive) | GI50 (DMS-114): 15.1 µM (inactive) | GI50 (DMS-273): 14 µM (inactive) | GI50 (DLD-1): 12.9 µM (inactive)

Nn1c(CCCl)nc2c(Br)cc(Br)cc2c1=O
GI50 (M19-MEL): 32.1 µM (inactive) | GI50 (LXFL 529): 24.7 µM (inactive) | GI50 (KM-20L2): 26 µM (inactive) | GI50 (XF498): 20.6 µM (inactive) | GI50 (HOP-18): 33.3 µM (inactive) | GI50 (DMS-114): 22.5 µM (inactive) | GI50 (DMS-273): 30.3 µM (inactive) | GI50 (DLD-1): 26.8 µM (inactive)

O=C(CCc1nnc(S)[nH]1)Nc1cc(Cl)c(Cl)cc1Cl
GI50 (M19-MEL): > 100 µM (inactive) | GI50 (LXFL 529): > 100 µM (inactive) | GI50 (KM-20L2): > 100 µM (inactive) | GI50 (XF498): > 100 µM (inactive) | GI50 (DMS-114): > 100 µM (inactive) | GI50 (DMS-273): > 100 µM (inactive) | GI50 (RXF 631): > 100 µM (inactive)

Clc1ccc2ns[s+]c2c1
GI50 (M19-MEL): 1.97 µM (inactive) | GI50 (LXFL 529): 0.166 µM (active) | GI50 (KM-20L2): 0.317 µM (active) | GI50 (XF498): > 100 µM (inactive) | GI50 (HOP-18): 11.7 µM (inactive) | GI50 (DMS-114): 2.61 µM (inactive) | GI50 (DMS-273): 0.815 µM (active) | GI50 (DLD-1): 0.625 µM (active)

CC1OC(OC2C[C@](O)(C(=O)CF)Cc3c(O)c4c(c(O)c32)C(=O)c2ccccc2C4=O)CC(N)C1O (stereo not given in full)
GI50 (M19-MEL): 0.0178 µM (active) | GI50 (LXFL 529): 0.0596 µM (active) | GI50 (KM-20L2): 0.0574 µM (active) | GI50 (XF498): < 0.0164 µM (active) | GI50 (DMS-114): < 0.0109 µM (active) | GI50 (DMS-273): < 0.01 µM (active) | GI50 (DLD-1): 0.0484 µM (active)

COc1ccc(CNc2nc3c(NC(C)=O)cc(C(F)(F)F)cc3nc2-c2ccccc2)cc1OC
GI50 (M19-MEL): > 100 µM (inactive) | GI50 (LXFL 529): 16.4 µM (inactive) | GI50 (KM-20L2): > 100 µM (inactive) | GI50 (XF498): 78 µM (inactive) | GI50 (DMS-114): 15.2 µM (inactive) | GI50 (DMS-273): 21.9 µM (inactive) | GI50 (DLD-1): > 100 µM (inactive)

CN(C(=O)c1ccc(Cl)cc1)C(=S)N1CCN(c2ccccn2)CC1
GI50 (M19-MEL): > 100 µM (inactive) | GI50 (LXFL 529): > 100 µM (inactive) | GI50 (KM-20L2): > 100 µM (inactive) | GI50 (HOP-18): > 100 µM (inactive) | GI50 (DMS-114): 69.8 µM (inactive) | GI50 (DMS-273): > 100 µM (inactive) | GI50 (DLD-1): > 100 µM (inactive)

CN(C)c1ccc(C(=C2C=CC(=[N+](C)C)C=C2)c2ccc(N(C)C)cc2)cc1 [GENTIAN VIOLET]
GI50 (M19-MEL): 0.173 µM (active) | GI50 (LXFL 529): 0.0579 µM (active) | GI50 (KM-20L2): 0.206 µM (active) | GI50 (XF498): 0.0363 µM (active) | GI50 (DMS-114): 0.13 µM (active) | GI50 (DMS-273): 0.22 µM (active) | GI50 (DLD-1): 0.0673 µM (active) | GI50 (RXF 631): 0.185 µM (active)

Cc1ccc(/C=C/C(=O)c2sc(C(N)=S)nc2C)cc1
GI50 (M19-MEL): > 100 µM (inactive) | GI50 (KM-20L2): > 100 µM (inactive) | GI50 (HOP-18): > 100 µM (inactive) | GI50 (DMS-273): > 100 µM (inactive) | GI50 (DLD-1): > 100 µM (inactive)

COC(=O)C1=Cc2c(cc(OC)c(OC)c2OC)[C@H](c2ccc(OC)c(OC)c2OC)C1C(=O)OC (stereo not given in full)
GI50 (M19-MEL): > 100 µM (inactive) | GI50 (LXFL 529): > 100 µM (inactive) | GI50 (KM-20L2): > 100 µM (inactive) | GI50 (DMS-114): 61.7 µM (inactive) | GI50 (DMS-273): 29.5 µM (inactive) | GI50 (DLD-1): > 100 µM (inactive) | GI50 (RXF 631): 71.8 µM (inactive)

COc1ccccc1NC(=O)CC(=O)N/N=C/c1ccc(N(CCC#N)S(=O)(=O)c2ccccc2)cc1
GI50 (M19-MEL): > 100 µM (inactive) | GI50 (LXFL 529): > 100 µM (inactive) | GI50 (KM-20L2): > 100 µM (inactive) | GI50 (XF498): > 100 µM (inactive) | GI50 (HOP-18): > 100 µM (inactive) | GI50 (DMS-114): > 100 µM (inactive) | GI50 (DLD-1): > 100 µM (inactive)

Nc1ccn(CCNCCn2cnc3nc(N)[nH]c(=O)c32)c(=O)n1
GI50 (LXFL 529): > 100 µM (inactive) | GI50 (KM-20L2): > 100 µM (inactive) | GI50 (XF498): > 100 µM (inactive) | GI50 (HOP-18): > 100 µM (inactive) | GI50 (DMS-114): > 100 µM (inactive) | GI50 (DLD-1): > 100 µM (inactive) | GI50 (RXF 631): > 100 µM (inactive)

COc1ccc(-c2c(N)[n+]([O-])c3ccccc3[n+]2[O-])cc1OC
GI50 (M19-MEL): > 100 µM (inactive) | GI50 (LXFL 529): > 100 µM (inactive) | GI50 (KM-20L2): > 100 µM (inactive) | GI50 (HOP-18): > 100 µM (inactive) | GI50 (DMS-114): > 100 µM (inactive) | GI50 (DMS-273): > 100 µM (inactive) | GI50 (DLD-1): > 100 µM (inactive) | GI50 (RXF 631): 86.3 µM (inactive)
